# Source: US10233209B2, “Inhibitors of the farnesoid x receptor and uses in medicine” (The United States of America, as represented by the …, priority 2013, dated 2019)
# Target: T1, human FXR (Homo sapiens, UniProt Q96RI1)
# T1 construct: expressed in transfected cells; host or cells: HEK293T
# T1 sequence (Q96RI1 262-486 limits assumed): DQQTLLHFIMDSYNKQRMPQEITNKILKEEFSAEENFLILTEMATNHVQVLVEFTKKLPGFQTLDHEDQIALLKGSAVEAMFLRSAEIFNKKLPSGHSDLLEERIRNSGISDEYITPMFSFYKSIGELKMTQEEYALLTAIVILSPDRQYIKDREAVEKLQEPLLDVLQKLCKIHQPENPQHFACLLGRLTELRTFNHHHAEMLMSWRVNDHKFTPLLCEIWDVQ
# Experiment: human FXR competition assay (GAL4-FXR chimeric receptor luciferase, HEK293T)
# Format: cell-based
# Conditions: in the presence of GW4064
# Experimental: Luciferase detection was conducted using the Dual Luciferase Reporter Assay kit (Promega Corp., Madison, Wis.) and a Tecan GeniosPro luminescent plate reader (Research Triangle Park, N.C.).
# Luciferase detection was conducted using the Dual Luciferase Reporter Assay kit (Promega; Madison, Wis.) and a Tecan GeniosPro™ luminescent plate reader (Research Triangle Park, N.C.).
row,"FXR activity induced by synthetic agonist GW4064 (luciferase, normalized to Renilla)",Compound
1,inhibited FXR,C[C@H](CCC(=O)NCCS(=O)(=O)O)[C@H]1CC[C@H]2[C@@H]3[C@@H](O)[C@H](O)[C@@H]4C[C@H](O)CC[C@]4(C)[C@H]3CC[C@]12C [TWMCA]
2,inhibited FXR,C[C@H](CCC(=O)NCCS(=O)(=O)O)[C@H]1CC[C@H]2[C@@H]3[C@H](O)[C@@H](O)[C@@H]4C[C@H](O)CC[C@]4(C)[C@H]3CC[C@]12C [TαMCA]
